The values that follow come from patent publication US20250057860A1, “READY-TO-DILUTE FORMULATION” (priority 2021, published 2025).

The conditions of series [1]: cited from earlier work.
The nature of series [2]: Solubility of remdesivir in water in the presence of surfactants. The class given is physicochemical. As to the method: The effect of various surfactants on the solubility of remdesivir in water was also tested.
Series [3] is described as follows: Initial screening: effect of excipients on remdesivir solubility. The class given is physicochemical.

A word on the Solubility: it is the dissolved amount per volume that the medium holds. Regarding remdesivir, the “solubility in water (in words)” value in series [1] is listed as “insoluble”. For the same substance, the “Remdesivir Solubility” value in series [2] (water with Kolliphor EL (Polyoxyl 35 Castor Oil; Cremophor) 0.10 % w/w) is reported as 0.020 mg/mL; in series [2] (water with Poloxamer P407 0.07 % w/w), 0.006 mg/mL; in series [2] (water with TWEEN 20 (Polysorbate 20) 0.16 % w/w), 0.016 mg/mL; in series [2] (water with TWEEN 80 (Polysorbate 80) 0.30 % w/w), 0.033 mg/mL. Moreover, the Solubility was not below 56 mg/mL in series [3] (in Benzyl Alcohol); not below 21 mg/mL in series [3] (in Ethanol); more than 100 mg/mL in series [3] (in N-methyl pyrrolidone); not below 112 mg/mL in series [3] (in N-methyl-2-pyrrolidone (NMP)); not below 226 mg/mL in series [3] (in NMP + Ethanol); not below 39 mg/mL in series [3] (in PEG 300). Besides, the Solubility in series [3] (in PEG 400) is recorded as not below 16 mg/mL; in series [3] (in PEG 400 + Glycerol (3:5)), 0.011 mg/mL; in series [3] (in PEG 400 + Glycerol (3:10)) it was 0.0008 mg/mL; in series [3] (in PEG 600) it was not below 6.2 mg/mL; in series [3] (in PEG 1000), not below 6.3 mg/mL; in series [3] (in Peppermint Oil) it was 15.9 mg/mL. The Solubility in series [3] (in Plasdone (PVP) + PEG 300) is reported as not below 66 mg/mL; in series [3] (in Propylene Glycol), not below 29 mg/mL; in series [3] (in Soluplus + Ethanol + Water), not below 34 mg/mL; in series [3] (in Span 20), 0.006 mg/mL; in series [3] (in Span 80) it was 0.3 mg/mL; in series [3] (in low molecular weight polyethylene glycols (PEG 300 and 400) in the presence of low molecular weight PVP), “over 50 mg/ml”.
